Paper PMC12285096, “Tirzepatide mitigates Stroke-Induced Blood-Brain barrier disruption by modulating Claudin-1 and C/EBP-α pathways” (Molecular Medicine, 2025)

Tests used:
[1] = test system: blood-brain barrier of MCAO mice; experiment: BBB permeability assay, 14C-sucrose influx in mice; format: in vivo, mouse; conditions: for BBB permeability (14C-sucrose), relative to Sham = 100: C/EBP-α experiment, MCAO 272.1%, Fig. 5B; for 14C-sucrose influx rate (Ki), right cerebral hemisphere: n = 6, mean ± SD
Description: To evaluate the therapeutic function of TZP against IS, four groups were divided: Sham, TZP, MCAO, and MCAO + TZP groups. In the Sham and MCAO groups, normal saline was intraperitoneally administered to sham-operated and MCAO-operated wide-type (WT) mice once a week for 8 weeks, respectively. In the TZP and MCAO + TZP groups, sham-operated and MCAO-operated WT mice were intraperitoneally administered with 10 nmol/kg TZP once a week for 8 weeks, respectively. To confirm the involvement of C/EBPα in the function of TZP, four groups were divided: Sham, MCAO, MCAO + TZP, and MCAO + C/EBP-α-/- + TZP. Administrations in the Sham, MCAO, and MCAO + TZP groups were described above. MCAO-operated C/EBP-α-/- mice in the MCAO + C/EBP-α-/- + TZP group received an intraperitoneal injection of 10 nmol/kg TZP every week for eight weeks. ^14C-sucrose (1 µCi, i.v.) was administered, and brain uptake was measured after 10 min. The influx rate (Ki, µL/g/min) was calculated as [^14C-sucrose]brain (dpm/g)/[^14C-sucrose]plasma (dpm/mL) × time (min).

HBMVECs [2] = experiment: FITC-dextran permeation across OGD/R-challenged HBMVECs; format: cell-based, human
Procedure: HBMVECs were sourced from ATCC (USA). These cells were cultivated in a medium specifically designed for endothelial cultures, enriched with 10% FBS, and maintained in an incubator set at a temperature of 37 °C with 5% CO2. For OGD/R modeling, the culture medium was replaced with a serum-free, glucose-free medium, and then it was placed in a hypoxic environment (1% O2, 5% CO2, 94% N2) at a 37 °C incubator for 10 h. After 10 h, the normal medium containing serum was added, and the normal oxygen supply was restored. The cells were then kept in a 37 °C constant temperature incubator for 24 h of reoxygenation. To silence C/EBP-α, HBMVECs were transduced with adenovirus harboring a short hairpin RNA (shRNA) specifically designed to knock down C/EBP-α (Ad-viral sh-C/EBP-α) for 48 h. A serum-free medium was used to dilute FITC-dextran to various concentrations for the establishment of a calibration curve. Subsequently, HBMVECs were cultured in the upper section of the Transwell setup. Thereafter, 100 µL of a 1 mg/mL FITC-conjugated dextran solution was added to the upper section and allowed to rest for 1 h in a shielded environment at 37 °C with 5% CO2. Post incubation, 100 µL of fluid was drawn from the lower section, and the luminescence intensity of the fluid in the lower section was quantified using a luminescence photometer (494/520 nm). Regarding the calibration curve and the observed luminescence intensity, the permeation level of FITC-dextran across the Transwell chamber was computed (µg/mL).

HBMVECs [3] = experiment: TEER of OGD/R-challenged HBMVECs; format: cell-based, human
Procedure: HBMVECs were sourced from ATCC (USA). These cells were cultivated in a medium specifically designed for endothelial cultures, enriched with 10% FBS, and maintained in an incubator set at a temperature of 37 °C with 5% CO2. For OGD/R modeling, the culture medium was replaced with a serum-free, glucose-free medium, and then it was placed in a hypoxic environment (1% O2, 5% CO2, 94% N2) at a 37 °C incubator for 10 h. After 10 h, the normal medium containing serum was added, and the normal oxygen supply was restored. The cells were then kept in a 37 °C constant temperature incubator for 24 h of reoxygenation. To silence C/EBP-α, HBMVECs were transduced with adenovirus harboring a short hairpin RNA (shRNA) specifically designed to knock down C/EBP-α (Ad-viral sh-C/EBP-α) for 48 h. Approximately 100,000 cells were nurtured in the upper section of the Transwell device. Once the cells had bonded to the container surfaces, TEER values across each group were determined utilizing an impedance meter (Millipore, United States) after 24 h.

Claudin-1 = Claudin-1 expression in mouse cortex (RT-PCR, immunostaining); format: in vivo; conditions: for Claudin-1 levels (mRNA): C/EBP-α experiment, Fig. 5C; for Claudin-1 expressions in cortex tissue (mRNA, protein by immunostaining): Fig. 3A, B
Procedure: Mouse brain cortex samples were traditionally fixed in a 10% formaldehyde solution, embedded in paraffin, sectioned, and then dehydrated. Endogenous peroxidase activity was quenched by incubating the sections with a 3% hydrogen peroxide solution for 30 min. Antigen retrieval was carried out using ethylenediaminetetraacetic acid (EDTA) under pressure. After sealing for 30 min, slides were incubated overnight at 4 °C with primary antibodies specific for Claudin-1 (Abcam, USA), diluted at a ratio of 1:400. This incubation period was extended to ensure thorough binding. Subsequently, the slides were washed and incubated with secondary antibodies (1:400, Abcam, USA) for 15 min. Finally, the slides were developed using a DAB chromogenic substrate system, counterstained with hematoxylin, differentiated with an ethanol solution containing hydrochloric acid, subjected to a bluing step with running tap water, rinsed with deionized water, dehydrated, and covered with a protective cover slip. Visual documentation was obtained using a microscope (Zeiss, Germany). 1 mL of RNAiso Plus solution was added to the pulverized rodent cerebral cortex samples or cellular material. Following complete homogenization, the liquid fraction was extracted after high-speed centrifugation. The overall RNA pellet was then washed with 75% ethanol, and the RNA was subsequently harvested for reverse transcription. These specific procedures were carried out in accordance with the instructions provided in the PrimeScript RT reagent Kit (TaKaRa, Japan). Real-time PCR detection was performed following the experimental protocols of the Applied Biosystems 7300 instrument. Gene expression levels were determined based on cycle threshold counts.

Structure (SMILES): CC[C@H](C)[C@H](NC(=O)[C@H](CC(C)C)NC(=O)[C@H](Cc1c[nH]c2ccccc12)NC(=O)[C@H](CCC(N)=O)NC(=O)[C@@H](NC(=O)[C@H](Cc1ccccc1)NC(=O)[C@H](C)NC(=O)[C@H](CCCCNC(=O)COCCOCCNC(=O)COCCOCCNC(=O)CC[C@H](NC(=O)CCCCCCCCCCCCCCCCCCC(=O)O)C(=O)O)NC(=O)[C@H](CCC(N)=O)NC(=O)[C@H](C)NC(=O)[C@@H](NC(=O)[C@H](CCCCN)NC(=O)[C@H](CC(=O)O)NC(=O)[C@H](CC(C)C)NC(=O)C(C)(C)NC(=O)[C@@H](NC(=O)[C@H](CO)NC(=O)[C@H](Cc1ccc(O)cc1)NC(=O)[C@H](CC(=O)O)NC(=O)[C@H](CO)NC(=O)[C@@H](NC(=O)[C@H](Cc1ccccc1)NC(=O)[C@@H](NC(=O)CNC(=O)[C@H](CCC(=O)O)NC(=O)C(C)(C)NC(=O)[C@@H](N)Cc1ccc(O)cc1)[C@@H](C)O)[C@@H](C)O)[C@@H](C)CC)[C@@H](C)CC)C(C)C)C(=O)N[C@@H](C)C(=O)NCC(=O)NCC(=O)N1CCC[C@H]1C(=O)N[C@@H](CO)C(=O)N[C@@H](CO)C(=O)NCC(=O)N[C@@H](C)C(=O)N1CCC[C@H]1C(=O)N1CCC[C@H]1C(=O)N1CCC[C@H]1C(=O)N[C@@H](CO)C(N)=O [TZP, Tirzepatide]
- BBB permeability (14C-sucrose), relative to Sham = 100 ([1]; MCAO + TZP, WT mice): 141.9%
- BBB permeability (14C-sucrose), relative to Sham = 100 ([1]; TZP-treated MCAO C/EBP-α-/- mice): 205.7%
- 14C-sucrose influx rate (Ki), right cerebral hemisphere ([1]; MCAO + TZP group (10 nmol/kg i.p. weekly, 8 weeks), MCAO 2.582 ± 0.156, P < 0.005 vs. MCAO): 1.447 ± 0.103 µL/g/min
- 14C-sucrose influx rate (Ki), right cerebral hemisphere ([1]; TZP group (sham-operated, 10 nmol/kg i.p. weekly, 8 weeks), Sham 1.00 ± 0.028, P = 0.89 vs. Sham): 0.995 ± 0.032 µL/g/min
- FITC concentrations in the lower chamber (FITC-dextran permeation) (HBMVECs [2]; OGD/R + 50 nM TZP, 24 h, control 0.41, OGD/R 1.15, Fig. 6A): 0.83 mg/mL
- FITC concentrations in the lower chamber (FITC-dextran permeation) (HBMVECs [2]; OGD/R + 100 nM TZP, 24 h, control 0.41, OGD/R 1.15, Fig. 6A): 0.57 mg/mL
- FITC concentrations in the lower chamber (FITC-dextran permeation) (HBMVECs [2]; sh-C/EBP-α experiment, OGD/R + TZP (100 nM), control 0.42, OGD/R 1.03, Fig. 9B): 0.61 mg/mL
- FITC concentrations in the lower chamber (FITC-dextran permeation) (HBMVECs [2]; sh-C/EBP-α experiment, OGD/R + sh-C/EBP-α + TZP (100 nM), control 0.42, OGD/R 1.03, Fig. 9B): 0.93 mg/mL
- TEER values (HBMVECs [3]; OGD/R + 50 nM TZP, 24 h, control 191.3, OGD/R 115.3, Fig. 6B): 145.3 Ω.cm²
- TEER values (HBMVECs [3]; OGD/R + 100 nM TZP, 24 h, control 191.3, OGD/R 115.3, Fig. 6B): 172.9 Ω.cm²
- TEER values (HBMVECs [3]; sh-C/EBP-α experiment, OGD/R + TZP (100 nM), control 187.4, OGD/R 113.5, Fig. 9C): 175.6 Ω.cm²
- TEER values (HBMVECs [3]; sh-C/EBP-α experiment, OGD/R + sh-C/EBP-α + TZP (100 nM), control 187.4, OGD/R 113.5, Fig. 9C): 138.2 Ω.cm²
- Claudin-1 levels (mRNA) (Claudin-1; MCAO + C/EBP-α-/- + TZP vs. MCAO + TZP): strikingly repressed
- Claudin-1 levels (mRNA) (Claudin-1; MCAO + TZP WT mice vs. MCAO): sharply enhanced
- Claudin-1 expressions in cortex tissue (mRNA, protein by immunostaining) (Claudin-1; MCAO + TZP vs. MCAO (markedly diminished), 10 nmol/kg i.p. weekly, 8 weeks): strikingly enhanced
- Claudin-1 expressions in cortex tissue (mRNA, protein by immunostaining) (Claudin-1; TZP group (sham-operated, 10 nmol/kg i.p. weekly, 8 weeks) vs. Sham): remarkably enhanced
